What was measured:
rat [1] = conditions: Sub-acute repeat dose toxicity, Oral, Gavage/Intubation, dose end: 12 day
dog [2] = conditions: Subchronic oral toxicity in nonrodent, beagle, Gavage/Intubation, dose end: 91 day, group: systemic
rat [3] = conditions: Sub-acute repeat dose toxicity, Oral, Gavage/Intubation, dose end: 36 day
rabbit = conditions: Prenatal developmental toxicity study; Oral; Gavage/Intubation; dose end: 19 GD; group: maternal; reproductive / reproductive performance / aborted / aborted + reproductive / reproductive performance / resorptions / resorptions + systemic…
rat [4] = conditions: Subchronic oral toxicity in rodents, Gavage/Intubation, dose end: 91 day, group: systemic
rat [5] = conditions: Sub-acute repeat dose toxicity; wistar; Oral; Gavage/Intubation; dose end: 14 day; group: systemic; systemic / hematology / [other] / [other]
rat [6] = conditions: Peri- and post-natal toxicity study (Segment III), Oral, Gavage/Intubation, dose end: 1 generation
rat [7] = conditions: Multigenerational reproductive toxicity study, wistar, Oral, Feed, dose end: 2 generation
rat [8] = conditions: Multigenerational reproductive toxicity study, sprague dawley, Oral, Feed, dose end: 2 generation
rat [9] = conditions: Prenatal developmental toxicity study, wistar, Dermal, Topical, dose end: 19 GD
rat [10] = conditions: Peri- and post-natal toxicity study (Segment III), sprague dawley, Oral, Gavage/Intubation, dose end: 54 PND
rat [11] = conditions: Subchronic oral toxicity in rodents, wistar, [Not Specified], dose end: 3 month, group: systemic
dog [12] = conditions: Subchronic oral toxicity in nonrodent, beagle, Feed, dose end: 6 month, group: systemic
mouse = conditions: Subchronic oral toxicity in rodents, other, Feed, dose end: 90 day, group: systemic, systemic / clinical chemistry / cholesterol / cholesterol + systemic / clinical chemistry / triglycerides / triglycerides + systemic / organ…
[13] = group: maternal, reproductive / offspring survival early / litter size / litter size + reproductive / reproductive performance / postimplantation loss / …
[14] = group: systemic, systemic / in life observation / body weight / body weight gain + systemic / in life observation / clinical signs / emaciation + systemic / …
[15] = systemic / clinical chemistry / alkaline phosphatase (alp/alk) / alkaline phosphatase (alp/alk) + systemic / clinical chemistry / protein / …
[16] = systemic / pathology microscopic / liver / hypertrophy + systemic / pathology microscopic / brain / infiltration cellular + systemic / …
[17] = group: maternal, reproductive / offspring survival early / dead fetuses / dead fetuses + reproductive / offspring survival early / litter viability other / …
[18] = group: maternal, reproductive / offspring survival early / dead fetuses / dead fetuses + reproductive / reproductive performance / gestational length / …
[19] = group: systemic, systemic / in life observation / body weight / body weight gain + systemic / in life observation / body weight / offspring (pup) weight + …
[20] = group: systemic, systemic / in life observation / clinical signs / [other] + systemic / in life observation / clinical signs / body cold to touch + systemic…
[21] = systemic / clinical chemistry / [other] / [other] + systemic / clinical chemistry / cytochrome p450, nos / cytochrome p450, nos + systemic…
[22] = systemic / in life observation / food consumption / food consumption + systemic / pathology microscopic / kidney / dilatation + systemic / …
[23] = group: maternal, reproductive / offspring survival early / dead fetuses / dead fetuses + reproductive / reproductive performance / dystocia / dystocia + …
[24] = group: maternal, reproductive / offspring survival early / litter size / litter size
[25] = group: parental, systemic / in life observation / clinical signs / body cold to touch + systemic / in life observation / clinical signs / cannibalism + …
[26] = group: parental, systemic / in life observation / clinical signs / body cold to touch + systemic / in life observation / clinical signs / dehydration + …
[27] = group: offspring, systemic / organ weight / liver / absolute
[28] = group: parental, systemic / organ weight / epididymis / absolute + systemic / organ weight / adrenal gland / absolute
[29] = group: offspring, developmental / developmental landmark / nipple development / nipple development + developmental / developmental landmark / preputial …
[30] = group: parental, systemic / organ weight / epididymis / absolute + systemic / organ weight / epididymis / relative to body weight + systemic / organ weight…
[31] = group: reproductive, reproductive / reproductive performance / fertility / fertility
[32] = group: developmental, developmental / developmental landmark / anogenital distance (agd) / anogenital distance (agd)
[33] = group: developmental, developmental / developmental landmark / anogenital distance (agd) / anogenital distance (agd) + developmental / developmental malformation…
[34] = group: maternal, systemic / organ weight / adrenal gland / absolute
[35] = group: maternal, systemic / organ weight / adrenal gland / absolute + systemic / organ weight / liver / absolute
[36] = group: developmental, developmental / developmental landmark / preputial separation / preputial separation
[37] = group: parental, systemic / organ weight / [other] / absolute + systemic / organ weight / adrenal gland / absolute + systemic / organ weight / prostate / …
[38] = group: parental, systemic / pathology gross / kidney / dilatation
[39] = systemic / organ weight / kidney / nos + systemic / organ weight / prostate / nos + systemic / organ weight / adrenal gland / nos + systemic…
[40] = systemic / organ weight / prostate / nos + systemic / organ weight / adrenal gland / nos + systemic / organ weight / epididymis / nos + …
[41] = systemic / organ weight / adrenal gland / absolute + systemic / organ weight / adrenal gland / relative to body weight + systemic / clinical…

## CC(C)(C)c1cc(/C=C2\SC(N)=NC2=O)cc(C(C)(C)C)c1O.CS(=O)(=O)O [Darbufelone mesylate]
Rat [1]; [13]
  LEL: 75 mg/kg/day
  LOAEL: > 75 mg/kg/day
  NEL: 50 mg/kg/day
  NOAEL: ≥ 75 mg/kg/day
Rat [1]; [14]
  LOAEL: > 75 mg/kg/day
  NEL: 10 mg/kg/day
  NOAEL: ≥ 75 mg/kg/day
Dog [2]; [15]
  LOAEL: > 10 mg/kg/day
  NOAEL: ≥ 10 mg/kg/day
Dog [2]; [16]
  LEL: 2 mg/kg/day
  NEL: < 2 mg/kg/day
Rat [3]; [17]
  LOAEL: > 25 mg/kg/day
  NOAEL: ≥ 25 mg/kg/day
Rat [3]; [18]
  LEL: 5 mg/kg/day
  NEL: < 5 mg/kg/day
Rat [3]; [19]
  LOAEL: > 25 mg/kg/day
  NOAEL: ≥ 25 mg/kg/day
Rat [3]; [20]
  LEL: 5 mg/kg/day
  NEL: < 5 mg/kg/day
rabbit
  LOAEL: > 35 mg/kg/day
  NOAEL: ≥ 35 mg/kg/day
Rat [4]; [21]
  LOAEL: > 75 mg/kg/day
  NOAEL: ≥ 75 mg/kg/day
Rat [4]; [22]
  LEL: 10 mg/kg/day
  NEL: < 10 mg/kg/day
Rat [5]
  LEL: 1 mg/kg/day
  LOAEL: > 75 mg/kg/day
  NEL: < 1 mg/kg/day
  NOAEL: ≥ 75 mg/kg/day
Rat [6]; [23]
  LEL: 1 mg/kg/day
  NEL: < 1 mg/kg/day
Rat [6]; [24]
  LOAEL: > 2 mg/kg/day
  NOAEL: ≥ 2 mg/kg/day
Rat [6]; [25]
  LEL: 1 mg/kg/day
  NEL: < 1 mg/kg/day
Rat [6]; [26]
  LOAEL: > 2 mg/kg/day
  NOAEL: ≥ 2 mg/kg/day

## C=CC1(C)OC(=O)N(c2cc(Cl)cc(Cl)c2)C1=O (stereo not given) [Vinclozolin]
Rat [7]; [27]
  LEL: 4.1 mg/kg/day
  LOAEL: > 4.1 mg/kg/day
  NEL: 2 mg/kg/day
  NOAEL: ≥ 4.1 mg/kg/day
Rat [7]; [28]
  LEL: 2 mg/kg/day
  LOAEL: > 4.1 mg/kg/day
  NEL: < 2 mg/kg/day
  NOAEL: ≥ 4.1 mg/kg/day
Rat [8]; [29]
  LEL: 14.8 mg/kg/day
  LOAEL: 14.8 mg/kg/day
  NEL: 3 mg/kg/day
  NOAEL: 3 mg/kg/day
Rat [8]; [30]
  LOAEL: 14.8 mg/kg/day
  NOAEL: 3 mg/kg/day
Rat [8]; group: parental, systemic / pathology microscopic / adrenal gland / [other] + systemic / pathology microscopic / liver / hypertrophy
  LEL: 11.5 mg/kg/day
Rat [8]; group: parental, systemic / pathology microscopic / adrenal gland / [other] + systemic / pathology microscopic / liver / hypertrophy + systemic / clinical …
  NEL: 2.34 mg/kg/day
Rat [8]; [31]
  LEL: 74.7 mg/kg/day
  LOAEL: > 74.7 mg/kg/day
  NEL: 14.8 mg/kg/day
  NOAEL: ≥ 74.7 mg/kg/day
Rat [9]; [32]
  LEL: 180 mg/kg/day
  LOAEL: 180 mg/kg/day
Rat [9]; [33]
  NEL: 60 mg/kg/day
  NOAEL: 60 mg/kg/day
Rat [9]; [34]
  LEL: 180 mg/kg/day
  LOAEL: 180 mg/kg/day
Rat [9]; [35]
  NEL: 60 mg/kg/day
  NOAEL: 60 mg/kg/day
Rat [10]; [36]
  LEL: 10 mg/kg/day
  LOAEL: > 100 mg/kg/day
  NEL: < 10 mg/kg/day
  NOAEL: ≥ 100 mg/kg/day
Rat [10]; [37]
  LOAEL: > 100 mg/kg/day
  NOAEL: ≥ 100 mg/kg/day
Rat [10]; [38]
  LEL: 10 mg/kg/day
  NEL: < 10 mg/kg/day
Rat [11]; [39]
  LOAEL: > 225 mg/kg/day
  NOAEL: ≥ 225 mg/kg/day
Rat [11]; [40]
  LEL: 50 mg/kg/day
  NEL: < 50 mg/kg/day
Dog [12]; systemic / organ weight / adrenal gland / absolute + systemic / organ weight / adrenal gland / relative to body weight
  LOAEL: 7.5 mg/kg/day
Dog [12]; [41]
  NEL: 2.5 mg/kg/day
  NOAEL: 2.5 mg/kg/day
Dog [12]; systemic / organ weight / adrenal gland / absolute + systemic / organ weight / adrenal gland / relative to body weight + systemic / organ …
  LEL: 7.5 mg/kg/day
mouse
  LEL: 230 mg/kg/day
  LOAEL: 230 mg/kg/day
  NEL: 20 mg/kg/day
  NOAEL: 20 mg/kg/day

From EPA's ToxRefDB 2
